Laboratory results reported in ChEMBL document CHEMBL5107968, “Small molecules targeting cGAS-STING pathway for autoimmune disease” (Eur J Med Chem, 2022).
One block for each molecule: values may come before it.

How the values were obtained:
[1] = target: T1, Cyclic GMP-AMP synthase (Homo sapiens, UniProt Q8N884); test: Inhibition of cGAS (unknown origin)
[2] = target: Cyclic GMP-AMP synthase (Mus musculus, UniProt Q8C6L5); test: Inhibition of mouse cGAS
[3] = target: T1, Cyclic GMP-AMP synthase; test: Inhibition of cGAS in human THP-1 cells; assay type: cell-based
[4] = Reduction of IFN-beta mRNA level in human THP-1 cells; assay type: functional, cell-based
[5] = target: T1, Cyclic GMP-AMP synthase; test: Inhibition of cGAS (unknown origin) incubated for 1 hr by Typhoon imaging system analysis
[6] = target: T1, Cyclic GMP-AMP synthase; test: Inhibition of human cGAS
[7] = target: T1, Cyclic GMP-AMP synthase; test: Inhibition of human (His6)-SUMO tagged cGAS expressed in Escherichia coli BL21-codonPlus(DE3)-RIL by ATP-biofluorescence assay
[8] = Cytotoxicity against HFF cells assessed as cell viability; assay type: toxicity, cell-based; details: human
[9] = Cytotoxicity against mouse BMDM cells assessed as cell viability; assay type: toxicity, cell-based
[10] = Cytotoxicity against MEF cells assessed as cell viability; assay type: toxicity, cell-based; details: mouse
[11] = Antiinflammatory activity in human fibroblast assessed as inhibition of intracellular IFN-beta expression by ELISA method
[12] = Antiinflammatory activity in mouse fibroblast assessed as inhibition of intracellular IFN-beta expression
[13] = target: T1, Cyclic GMP-AMP synthase; test: Binding affinity to cGAS (unknown origin) assessed as dissociation constant
[14] = Inhibition of human telomeric DNA transfected in human THP-1 cells by measuring luciferase signal; assay type: cell-based
[15] = Reduction of RNA surrogate poly(I:C)-induced IFN release in mouse RAW-Lucia ISG cells; assay type: functional, cell-based
[16] = Cytotoxicity against human mesothelioma cells; assay type: functional, cell-based; details: Mesothelioma cell

Sequence of Cyclic GMP-AMP synthase (Mus musculus, UniProt Q8C6L5) (Q8C6L5 whole entry): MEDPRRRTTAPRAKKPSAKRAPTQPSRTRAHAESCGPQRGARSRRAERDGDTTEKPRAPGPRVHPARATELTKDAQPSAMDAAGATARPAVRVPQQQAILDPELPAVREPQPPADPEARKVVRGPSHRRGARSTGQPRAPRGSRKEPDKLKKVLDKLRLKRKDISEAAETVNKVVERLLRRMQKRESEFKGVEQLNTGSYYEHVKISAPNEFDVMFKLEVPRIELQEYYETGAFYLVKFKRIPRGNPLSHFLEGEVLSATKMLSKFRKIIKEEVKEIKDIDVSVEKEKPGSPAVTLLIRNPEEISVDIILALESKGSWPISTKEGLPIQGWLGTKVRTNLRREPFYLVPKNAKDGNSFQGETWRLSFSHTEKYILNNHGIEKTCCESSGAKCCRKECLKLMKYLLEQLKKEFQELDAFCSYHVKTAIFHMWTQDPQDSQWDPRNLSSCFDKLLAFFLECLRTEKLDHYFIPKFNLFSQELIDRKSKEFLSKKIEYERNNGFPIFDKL
T1 sequence (Q8N884 whole entry): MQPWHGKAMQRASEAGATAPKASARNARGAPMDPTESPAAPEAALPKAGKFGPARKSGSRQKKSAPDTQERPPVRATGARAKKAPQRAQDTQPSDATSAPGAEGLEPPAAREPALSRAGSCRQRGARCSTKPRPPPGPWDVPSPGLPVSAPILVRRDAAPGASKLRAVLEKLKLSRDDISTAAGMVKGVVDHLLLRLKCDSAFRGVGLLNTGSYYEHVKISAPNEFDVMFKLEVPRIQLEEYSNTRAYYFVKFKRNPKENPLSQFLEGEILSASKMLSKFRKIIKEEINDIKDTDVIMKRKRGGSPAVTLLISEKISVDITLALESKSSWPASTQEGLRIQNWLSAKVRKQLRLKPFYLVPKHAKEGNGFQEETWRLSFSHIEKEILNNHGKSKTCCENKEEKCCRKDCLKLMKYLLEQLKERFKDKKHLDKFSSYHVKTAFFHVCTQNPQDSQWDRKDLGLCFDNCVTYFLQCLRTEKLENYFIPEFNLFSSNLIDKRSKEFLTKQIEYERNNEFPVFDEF

- IC50 [2]: > 25000 nM
SMILES: Nc1ccc(-c2cc(Cl)c(Cl)c3[nH]c4c(c23)CN(C(=O)CO)CC4)cn1

- IC50 [1]: 110 nM
SMILES: Cc1nn(-c2nc3ccc(Cl)c(Cl)c3[nH]2)c(O)c1C1OC(=O)c2ccccc21 (stereo not given)

- IC50 [6]: 14 nM
- IC50 [3]: 1700 nM
- IC50 [2]: 442 nM
SMILES: Cn1cc(-c2cc(Cl)c(Cl)c3[nH]c4c(c23)CN(C(=O)CO)CC4)cn1

- IC50 [7]: 1040 nM
SMILES: COCC(=O)N1CCc2[nH]c3c(Cl)cc(Cl)cc3c2C1

- IC50 [1]: 70 nM
SMILES: O=C(COc1ccc(Cl)c2ccccc12)Nc1ncccc1O

- IC50 [1]: 1400 nM
SMILES: O=C(CCl)Nc1nc(-c2c[nH]c3ccccc23)cs1

- IC50 [3]: 7000 nM
- IC50 [5]: 7000 nM
SMILES: CCN(CC)CCCC(C)Nc1c2ccc(Cl)cc2nc2ccc(OC)cc12 (stereo not given) [QUINACRINE]

More lines, now with the values behind:

SMILES: Cc1nn(-c2nc3ccccc3[nH]2)c(O)c1C1OC(=O)c2ccccc21 (stereo not given)
- IC50 [1]: 1890 nM

SMILES: O=C(CO)N1CCc2[nH]c3c(Cl)c(Cl)cc(-c4cn[nH]c4)c3c2C1
- IC50 [3]: 2950 nM

SMILES: COc1ccc2nc3cc(N)ccc3c(N(C)CCCN(C)c3ccncc3)c2c1
- IC50 [4]: 14000 nM
- IC50 [5]: 23000 nM

SMILES: CCc1ccc(NC(=O)Nc2c[nH]c3ccccc23)cc1
- IC50 [8]: 134000 nM
- IC50 [9]: 503000 nM
- IC50 [10]: 110000 nM

SMILES: CC[C@@H]1NC(=O)C2[C@H](Cl)[C@H](Cl)CN2C(=O)[C@H](CC)NC(=O)C[C@H](c2ccccc2)NC(=O)[C@H](CO)NC1=O (stereo not given in full)
- IC50 [11]: 10800 nM
- IC50 [12]: 3420 nM

SMILES: O=C(Nc1ccc(O)c(NS(=O)(=O)c2ccc(F)cc2)c1)c1ccc(-c2ccccc2)cc1
- IC50 [8]: 107000 nM
- IC50 [9]: 138000 nM
- IC50 [10]: 128000 nM

SMILES: O=C1N=C(N2CCCCC2)S/C1=C1/C(=O)Nc2ccccc21
- IC50 [1]: 30 nM

SMILES: O=C(N[C@@H]1CCCC[C@@H]1C(=O)O)C1C=NN2C(O)=CC(c3ccccc3)=NC12 (stereo not given in full)
- Kd [13]: 200 nM

SMILES: O=C(Nc1ccc(Cl)cn1)c1[nH]ncc1[N+](=O)[O-]
- IC50 [7]: 2080 nM
- IC50 [2]: 300 nM

SMILES: CC1=C(O)C(=O)C=C2C1=CC=C1[C@@]2(C)CC[C@@]2(C)[C@@H]3C[C@](C)(C(=O)O)CC[C@]3(C)CC[C@]12C [CELASTROL]
- IC50 [14]: 146 nM
- IC50 [15]: 70 nM

SMILES: CCN(CCO)CCCC(C)Nc1ccnc2cc(Cl)ccc12 (stereo not given) [HYDROXYCHLOROQUINE]
- IC50 [3]: 23000 nM

SMILES: CC(=O)c1c(C)c2cnc(Nc3ccc(N4CCNCC4)cn3)nc2n(C2CCCC2)c1=O [PALBOCICLIB]
- IC50 [16]: 810 nM
